What was measured:
[1] = test system: Ba/F3 cells (IL-3 dependent murine pro-B cell line); test: Proliferation assay (MTT), parental Ba/F3 cells; assay type: cell-based; settings: Mus musculus, 48 h, drug concentrations 0.005-10 μM, read-out: BaF3
Procedure: Interleukin-3 (IL-3) dependent murine pro-B cell line, Ba/F3, and murine myeloid precursor cell line, 32D, were maintained in RPMI-1640 medium supplemented with L-Glutamine, 10% FBS and 10 U/ml recombinant murine IL-3 (Roche). Mo7e human megakarioblastic cell line was grown in RPMI-1640 medium supplemented with L-Glutamine, 20% FBS and 5 ng/ml recombinant human granulocyte macrophage cell stimulating factor (GM-CSF) (R&D Systems) or 200 ng/ml stem cell factor (SCF) (Biosource).
(§1) Cells (0.3-0.6×10^6/ml) were plated in duplicate or triplicate in 96-well plates containing increasing drug concentrations (0.005-10 μM). After incubation at 37° C. in 5% CO2 for 48 h, the effect of the compounds on cell viability was determined by MTT (Promega) colorimetric dye reduction method. Inhibition of cell proliferation was calculated as a percentage of growth of DMSO treated cells, and IC50 values were determined with Microsoft Excel XLfit3.

[2] = biological target: Bcr-abl T315I (Ba/F3.p210^T315I cells) (Homo sapiens, UniProt P00519, T315I, cells depend on it); test: Proliferation assay (MTT), T315I mutant Bcr-abl expressing Ba/F3 cells; assay type: cell-based, murine; settings: 48 h, drug concentrations 0.005-10 μM
Source text: Wild type Bcr-abl expressing 32D (32D.p210) and Ba/F3 (Ba/F3.p210) cells, and mutant Bcr-abl expressing cell lines Ba/F3.p210^G250E, Ba/F3.p210^E255V, Ba/F3.p210^T315I, Ba/F3.p210^F317L and Ba/F3.p210^M351T, as well as Ba/F3 cells transformed with Flt-3-ITD kinase. Additional assays included Ba/F3 cells expressing the fusion protein kinases TEL-PDGFRβ, TEL-JAK1, NPM-ALK, TEL-cKit, Tel-Bmx, Tel-FGR3, Tel-Lck and Ba/F3.TPR-met cells. All the above cell lines were maintained in RPMI-1640 medium with L-Glutamine, 10% FBS and 1 mg/ml geneticin (Gibco).
as §1

| Structure (SMILES) | IC50 [1] [µM] | IC50 [2] [µM] |
| --- | --- | --- |
| CCN(CC)S(=O)(=O)c1ccc(-c2cc(Nc3ccc(OC(F)(F)F)cc3)ncn2)cc1 | 8.85 | 3.88 |
| O=S(=O)(c1ccc(-c2cc(Nc3ccc(OC(F)(F)F)cc3)ncn2)cc1)N1CCCCC1 | > 10 | 1.41 |
| Cc1ccc(S(=O)(=O)Nc2ccc(-c3cc(Nc4ccc(OC(F)(F)F)cc4)ncn3)cc2)cc1 | > 10 | > 10 |
| Cc1ccc(S(=O)(=O)Nc2ccc(-c3ncnc(Nc4ccc(OC(F)(F)F)cc4)c3C)cc2)cc1 | > 10 | > 10 |
| O=S(=O)(c1ccc(-c2cc(Nc3ccc(OC(F)(F)F)cc3)ncn2)cc1)N1CCOCC1 | > 10 | 2.63 |
| CS(=O)(=O)Nc1ccc(-c2cc(Nc3ccc(OC(F)(F)F)cc3)ncn2)cc1 | 2.21 | 0.6 |
| CCCC(C)S(=O)(=O)Nc1ccc(-c2cc(Nc3ccc(OC(F)(F)F)cc3)ncn2)cc1 (centres unmarked) | 3.8 | 1.66 |
| Cc1c(Nc2ccc(OC(F)(F)F)cc2)ncnc1-c1ccc(C(=O)NCCO)cc1 | > 10 | 4.67 |
| Cc1c(Nc2ccc(OC(F)(F)F)cc2)ncnc1-c1ccc(C(=O)NCCN2CCOCC2)cc1 | 3.79 | 0.81 |
| CC(=O)Nc1cccc(-c2ncnc(Nc3ccc(OC(F)(F)F)cc3)c2C)c1 | > 10 | > 10 |
| Cc1c(Nc2ccc(OC(F)(F)F)cc2)ncnc1-c1cccc(C(N)=O)c1 | > 10 | > 10 |
| Cc1c(Nc2ccc(OC(F)(F)F)cc2)ncnc1-c1cccc(C(=O)O)c1 | > 10 | > 10 |
| FC(F)(F)Oc1ccc(Nc2cc(-c3ccc(-c4ccccc4)cc3)ncn2)cc1 | > 10 | 3.18 |
| Cc1c(Nc2ccc(OC(F)(F)F)cc2)ncnc1-c1ccc(-c2ccccc2)cc1 | > 10 | > 10 |
| COc1cccc2cc(-c3cc(Nc4ccc(OC(F)(F)F)cc4)ncn3)ccc12 | > 10 | > 10 |
| COc1cccc2cc(-c3ncnc(Nc4ccc(OC(F)(F)F)cc4)c3C)ccc12 | > 10 | > 10 |

| Structure (SMILES) | IC50 [1] [µM] | IC50 [2] [µM] |
| --- | --- | --- |
| N#CCc1cccc(-c2cc(Nc3ccc(OC(F)(F)F)cc3)ncn2)c1 | 8.82 | 3.39 |
| O=[N+]([O-])c1cccc(-c2cc(Nc3ccc(OC(F)(F)F)cc3)ncn2)c1 | > 10 | > 10 |
| COc1ccc(C(=O)Nc2ccc(-c3cc(Nc4ccc(OC(F)(F)F)cc4)ncn3)cc2)cc1 | 9.22 | > 10 |
| Cc1c(Nc2ccc(OC(F)(F)F)cc2)ncnc1-c1ccc(CN)cc1 | > 10 | > 10 |
| FC(F)(F)Oc1ccc(Nc2ncnc(NCCN3CCOCC3)c2Br)cc1 | > 10 | > 10 |
| NC(=O)C1CCCN(c2ncnc(Nc3ccc(OC(F)(F)F)cc3)c2Br)C1 (centres unmarked) | > 10 | > 10 |
| FC(F)(F)Oc1ccc(Nc2cc(-n3ccnc3NCCN3CCOCC3)ncn2)cc1 | > 10 | > 10 |
| FC(F)(F)Oc1ccc(Nc2cc(-n3ccnc3Nc3ccc(OC(F)(F)F)cc3)ncn2)cc1 | > 10 | > 10 |
| Nc1cc(C2CC2)n(-c2cc(Nc3ccc(OC(F)(F)F)cc3)ncn2)n1 | > 10 | > 10 |
| FC(F)(F)Oc1ccc(Nc2cc(-n3ccc4cccnc43)ncn2)cc1 | > 10 | > 10 |
| FC(F)(F)Oc1ccc(Nc2cc(-c3cn[nH]c3)ncn2)cc1 | > 10 | ~0.46 |
| CC(C)Cn1cc(-c2cc(Nc3ccc(OC(F)(F)F)cc3)ncn2)cn1 | > 10 | 1.55 |
| O=C(NCCO)c1cc2c(Nc3ccc(OC(F)(F)F)cc3)ncnc2s1 [N-(2-hydroxyethyl)-4-(4-(trifluoromethoxy)phenylamino)thieno[2,3-d]pyrimidine-6-carboxamide] | > 10 | > 10 |
| Cc1nn(C)c(C)c1-c1cc(Nc2ccc(OC(F)(F)F)cc2)ncn1 [N-(4-(trifluoromethoxy)phenyl)-6-(1,3,5-trimethyl-1H-pyrazol-4-yl)pyrimidin-4-amine] | > 10 | > 10 |
| O=C(NCCN1CCOCC1)c1cc2c(Nc3ccc(OC(F)(F)F)cc3)ncnc2s1 [drawing 343] | > 10 | > 10 |

Source: patent publication US9670214B2, “Small molecule myristate inhibitors of Bcr-abl and methods of use” (DANA-FARBER CANCER INSTITUTE, INC., priority 2007, dated 2017)
